Read-outs that look alike come from different tables or passages of the source.
Target: T1, human recombinant mGluR5 (Homo sapiens, UniProt P41594)
T1 construct: expressed in transfected cells; host or cells: HEK 293 cell line, cultured with tetracycline, hygromycin and geneticin; tetracycline is withdrawn 3-7 days before the assay
Assay: positive modulation of mGluR5, calcium based FLIPR assay
Format: cell-based
Experimental: The positive modulation of mGluR5 is measured in a HEK 293 cell line expressing human recombinant mGluR5 and is detected with calcium based FLIPR assay. The cells are cultured with DMEM supplemented with 10% FCS, 2 μg/mL tetracycline, 100 μg/mL hygromycin and 500 μg/mL gneticin. The cell culture media is exchanged for tetracycline-free cell culture media 3-7 days before the assay. One day before the assay the cell culture medium is exchanged to DMEM without glutamine and phenol red and supplemented with 10% FCS, 100 μg/mL hygromycin and 500 μg/mL geneticin. On the assay day, the medium of the subconfluent cultures is removed and the cells are detached by addition of 2.5 ml EDTA (0.02%) per 175 cm2 culture flask for 1 minute. The cells are resuspend in Ringer solution (140 mM NaCl, 5 mM KCl, 2.5 mM CaCl2, 1.5 mM MgCl2, 5 mM Glucose, 10 mM Hepes; adjusted to pH 7.4 with NaOH), pooled and Ringer solution added to adjust the volume to 50 mL. The cell suspension is centrifuged for 5 min at 1500 U/min (425 g). The supernatant is removed and the cells washed a second time with 50 ml fresh Ringer solution and centrifuged again as before. The supernatant is again removed and the pellet resuspended in Ringer solution to 1,000,000 cells/ml (1×10^6 cells/mL). The cells are plated onto BD BioCoat Poly-D-Lysine 384 well plates (20.000 cells/well; 20 μl/well). The lid covered plates are then incubated until use at 37° C./10% CO2. For dye loading, 20 μl of Calcium-4 assay kit solution (prepared according to the manufacturer's description in Ringer solution) are added to the cells and the plates are incubated for 80 min 37° C. and then 10 min at room temperature. • Controls, Compound dilution and assay execution: • Each assay plate contained wells with “high” and “low” controls:
Low controls 1% DMSO/ringer solution+basal glutamate activation (defined as 100% CTL).
High controls 10 μM CDPPB+basal glutamate activation (defined as 200% CTL).
Test compounds are dissolved and diluted in DMSO to 100-fold the desired concentrations. In a second step, the compounds are diluted in Ringer solution such that the compounds are 4-fold more concentrated than the desired final assay concentration. The final DMSO concentration was 1%.
20 μl of each compound solution are then transferred to the assay plate and the Ca2+ kinetic is measured to determine any intrinsic compound activity. After 5 min incubation in the FLIPR device, the second stimulation with 20 μl of glutamate in Ringer solution (glutamate concentration adjusted to approximately 5% basal stimulation of the maximal possible glutamate effect) is added and the kinetic Ca2+ response of the wells was measured for the modulation effect.
The peak height of the Ca release related fluorescence signal (9-66) is used for the EC50. The EC50 of the modulation is calculated over a nonlinear regression with GraphPad Prism (Table 1).

[1] = EC50 of the modulation, HEK 293 cell line expressing human recombinant mGluR5, peak height of Ca fluorescence signal after glutamate at approx. 5% basal stimulation, read-out: EC50

T1 sequence (P41594 21-1212): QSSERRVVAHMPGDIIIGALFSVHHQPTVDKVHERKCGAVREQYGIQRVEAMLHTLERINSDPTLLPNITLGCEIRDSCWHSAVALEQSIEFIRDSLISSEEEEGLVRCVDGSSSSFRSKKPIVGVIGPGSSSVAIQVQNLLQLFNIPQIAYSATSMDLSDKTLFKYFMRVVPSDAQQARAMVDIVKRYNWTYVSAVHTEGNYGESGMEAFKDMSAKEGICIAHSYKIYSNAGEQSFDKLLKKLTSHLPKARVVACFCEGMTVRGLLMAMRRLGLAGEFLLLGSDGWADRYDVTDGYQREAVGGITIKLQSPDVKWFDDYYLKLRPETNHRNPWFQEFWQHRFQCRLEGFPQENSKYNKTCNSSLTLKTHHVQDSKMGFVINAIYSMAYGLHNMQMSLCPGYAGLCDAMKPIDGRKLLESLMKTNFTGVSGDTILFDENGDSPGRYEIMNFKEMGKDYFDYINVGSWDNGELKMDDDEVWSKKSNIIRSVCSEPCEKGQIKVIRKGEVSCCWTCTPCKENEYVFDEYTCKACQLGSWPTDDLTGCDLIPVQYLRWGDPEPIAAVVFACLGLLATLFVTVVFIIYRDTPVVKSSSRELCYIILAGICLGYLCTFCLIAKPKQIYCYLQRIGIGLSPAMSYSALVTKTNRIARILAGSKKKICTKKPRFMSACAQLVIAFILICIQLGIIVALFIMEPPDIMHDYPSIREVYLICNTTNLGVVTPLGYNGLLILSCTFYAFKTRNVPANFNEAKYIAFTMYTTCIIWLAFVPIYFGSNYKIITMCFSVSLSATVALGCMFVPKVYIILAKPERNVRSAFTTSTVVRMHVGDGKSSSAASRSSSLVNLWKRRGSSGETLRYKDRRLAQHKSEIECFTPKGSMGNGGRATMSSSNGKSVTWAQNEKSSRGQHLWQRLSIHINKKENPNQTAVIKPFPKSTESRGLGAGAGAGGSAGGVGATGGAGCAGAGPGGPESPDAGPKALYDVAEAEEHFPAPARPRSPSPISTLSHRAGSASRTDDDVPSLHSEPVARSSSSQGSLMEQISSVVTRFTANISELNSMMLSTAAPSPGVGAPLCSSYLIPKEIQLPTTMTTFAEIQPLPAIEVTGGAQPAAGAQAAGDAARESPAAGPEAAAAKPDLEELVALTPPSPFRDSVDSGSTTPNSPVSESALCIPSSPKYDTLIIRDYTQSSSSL

Question: How did the EC50 [1] turn out when O=C(Cn1nc(-c2ccc(F)cc2)nc1-c1ccc(F)cc1)N1CCN(c2ncnc3ccccc23)CC1 [07.03.141^] was run?
Answer: 1120 nM

Question: O=C(Cn1nc(-c2ccc(F)cc2)nc1-c1ccc(F)cc1)N1CCN(c2ccccn2)C(=O)C1 [Example 7.01.01., 4-(2-(3,5-bis-(4-Fluoro-phenyl)-(1,2,4)triazol-1-yl)-acetyl)-1-pyridin-2-yl-piperazin-2-one] was tested. Which EC50 [1] did it give?
Answer: 212 nM

Question: O=C(Cn1nc(-c2ccc(F)cc2)nc1-c1ccc(F)cc1)N1CCN(c2nccs2)C(=O)C1 [Example 7.01.02.] was tested. Which EC50 [1] did it give?
Answer: 118 nM

Question: For COc1cccc(N2CCN(C(=O)Cn3nc(-c4ccc(F)cc4)nc3-c3ccc(F)cc3)CC2=O)c1 [Example 7.01.03.], which EC50 [1] is on record?
Answer: 283 nM

Question: With O=C(Cn1nc(-c2ccc(F)cc2)nc1-c1ccc(F)cc1)N1CCC(c2noc3ccccc23)CC1 [Example 7.02.01., 1-(4-Benzo[d]isoxazol-3-yl-piperidin-1-yl)-2-(3,5-bis-(4-fluoro-phenyl)-(1,2,4)triazol-1-yl)-ethanone] as the molecule, how does the EC50 [1] read?
Answer: 178 nM

Question: With CC(C)c1noc(C2CCN(C(=O)Cn3nc(-c4ccc(F)cc4)nc3-c3ccc(F)cc3)CC2)n1 [Example 7.02.03.] as the molecule, how does the EC50 [1] read?
Answer: 1220 nM

Question: How did the EC50 [1] turn out when O=C(Cn1nc(-c2ccc(F)cc2)nc1-c1ccc(F)cc1)N1Cc2cn[nH]c2C1 [Example 7.02.04.] was run?
Answer: 818 nM

Question: O=C(Cn1nc(-c2ccc(F)cc2)nc1-c1ccc(F)cc1)N1CCc2cc(F)ccc2C1 [Example 7.02.05.] was tested. Which EC50 [1] did it give?
Answer: 900 nM

Question: With O=C(Cn1nc(-c2ccc(F)cc2)nc1-c1ccc(F)cc1)N1CCC(OCC2CC2)CC1 [Example 7.02.06.] as the molecule, how does the EC50 [1] read?
Answer: 1400 nM

Question: With CC(=O)Nc1nc2c(s1)CCN(C(=O)Cn1nc(-c3ccc(F)cc3)nc1-c1ccc(F)cc1)CC2 [Example 7.02.07.] as the molecule, how does the EC50 [1] read?
Answer: 1200 nM

Question: For COc1cccc2c1CCN(C(=O)Cn1nc(-c3ccc(F)cc3)nc1-c1ccc(F)cc1)C2 [Example 7.02.08.], which EC50 [1] is on record?
Answer: 666 nM

Question: For O=C(Cn1nc(-c2ccc(F)cc2)nc1-c1ccc(F)cc1)N1CCc2cc(C(F)(F)F)ccc2C1 [Example 7.02.09.], which EC50 [1] is on record?
Answer: 992 nM

Question: With O=C(Cn1nc(-c2ccc(F)cc2)nc1-c1ccc(F)cc1)N1CCc2cccc(F)c2C1 [Example 7.02.10.] as the molecule, how does the EC50 [1] read?
Answer: 965 nM

Question: With COC(=O)c1ccc2c(c1)CCN(C(=O)Cn1nc(-c3ccc(F)cc3)nc1-c1ccc(F)cc1)CC2 [Example 7.02.11.] as the molecule, how does the EC50 [1] read?
Answer: 376 nM

Question: O=C(Cn1nc(-c2ccc(F)cc2)nc1-c1ccc(F)cc1)N1CCc2ccccc2CC1 [Example 7.02.12.] was tested. Which EC50 [1] did it give?
Answer: 1020 nM

Question: How did the EC50 [1] turn out when O=C(Cn1nc(-c2ccc(F)cc2)nc1-c1ccc(F)cc1)N1CCN(c2cccc(F)c2)C(=O)C1 [Example 7.02.13.] was run?
Answer: 544 nM

Question: Which EC50 [1] does the source give for O=C(Cn1nc(-c2ccc(F)cc2)nc1-c1ccc(F)cc1)N1CCN(c2ccccc2F)C(=O)C1 [Example 7.02.14.] here?
Answer: 537 nM

Question: Which EC50 [1] does the source give for CCNC(=O)Nc1nc2c(s1)CN(C(=O)Cn1nc(-c3ccc(F)cc3)nc1-c1ccc(F)cc1)CC2 [Example 7.02.15.] here?
Answer: 646 nM

Question: CC(C)NC(=O)Nc1nc2c(s1)CN(C(=O)Cn1nc(-c3ccc(F)cc3)nc1-c1ccc(F)cc1)CC2 [Example 7.02.16.] was tested. Which EC50 [1] did it give?
Answer: 1360 nM

Question: For CNC(=O)Nc1nc2c(s1)CN(C(=O)Cn1nc(-c3ccc(F)cc3)nc1-c1ccc(F)cc1)CC2 [Example 7.02.17.], which EC50 [1] is on record?
Answer: 1060 nM

Question: Which EC50 [1] does the source give for O=C(Cn1nc(-c2ccc(F)cc2)nc1-c1ccc(F)cc1)N1CCC(c2nccs2)CC1 [Example 7.02.18.] here?
Answer: 516 nM

Question: How did the EC50 [1] turn out when O=C(Cn1nc(-c2ccc(F)cc2)nc1-c1ccc(F)cc1)N1CCC(c2ncc(-c3ccccc3)s2)CC1 [Example 7.02.19.] was run?
Answer: 1990 nM

Question: For O=C(Cn1nc(-c2ccc(F)cc2)nc1-c1ccc(F)cc1)N1CCC(Nc2ccccc2)CC1 [Example 7.02.20.], which EC50 is on record?
Answer: 1530 nM

Question: How did the EC50 [1] turn out when O=C(Cn1nc(-c2ccc(F)cc2)nc1-c1ccc(F)cc1)N1CCC(c2nnc(-c3ccc(F)cc3)o2)CC1 [Example 7.02.22.] was run?
Answer: 746 nM

Question: How did the EC50 [1] turn out when Cc1nc2c(s1)CN(C(=O)Cn1nc(-c3ccc(F)cc3)nc1-c1ccc(F)cc1)C2 [Example 7.02.23.] was run?
Answer: 278 nM

Question: Which EC50 [1] does the source give for N#Cc1ccc(Cl)cc1NC1CCN(C(=O)Cn2nc(-c3ccc(F)cc3)nc2-c2ccc(F)cc2)CC1 [Example 7.02.24.] here?
Answer: 560 nM

Question: For CN1C(=O)N(C2CCN(C(=O)Cn3nc(-c4ccc(F)cc4)nc3-c3ccc(F)cc3)CC2)Cc2ccccc21 [Example 7.02.25.], which EC50 [1] is on record?
Answer: 1860 nM

Question: With Nc1ccc2c(c1)CCN(C(=O)Cn1nc(-c3ccc(F)cc3)nc1-c1ccc(F)cc1)CC2 [Example 7.02.26.] as the molecule, how does the EC50 [1] read?
Answer: 518 nM

Question: With O=C(Cn1nc(-c2ccc(F)cc2)nc1-c1ccc(F)cc1)N1CCc2c(F)ccc(F)c2C1 [Example 7.02.27.] as the molecule, how does the EC50 [1] read?
Answer: 1830 nM

Question: O=C(Cn1nc(-c2ccc(F)cc2)nc1-c1ccc(F)cc1)N1CCC(c2noc3ccc(F)cc23)CC1 [Example 7.02.28.] was tested. Which EC50 [1] did it give?
Answer: 644 nM

Question: Which EC50 [1] does the source give for C=CCNC(=O)Nc1nc2c(s1)CN(C(=O)Cn1nc(-c3ccc(F)cc3)nc1-c1ccc(F)cc1)CC2 [Example 7.02.29.] here?
Answer: 504 nM

Question: With O=C(Cn1nc(-c2ccc(F)cc2)nc1-c1ccc(F)cc1)N1CCC(Oc2ccc3c(c2)OCO3)CC1 [Example 7.02.30.] as the molecule, how does the EC50 [1] read?
Answer: 932 nM

Question: How did the EC50 [1] turn out when O=C(Cn1nc(-c2ccc(F)cc2)nc1-c1ccc(F)cc1)N1CCC(n2nc(-c3cccs3)ccc2=O)CC1 [Example 7.02.31.] was run?
Answer: 1780 nM

Question: For CC(C)c1ncc2c(n1)CCN(C(=O)Cn1nc(-c3ccc(F)cc3)nc1-c1ccc(F)cc1)C2 [Example 7.02.32.], which EC50 [1] is on record?
Answer: 468 nM

Question: Which EC50 [1] does the source give for COC(=O)c1ccc2c(c1)CCN(C(=O)Cn1nc(-c3ccc(F)cc3)nc1-c1ccc(F)cc1)C2 [Example 7.02.33.] here?
Answer: 309 nM

Question: Which EC50 [1] does the source give for Cn1c(=O)n(C2(C)CCN(C(=O)Cn3nc(-c4ccc(F)cc4)nc3-c3ccc(F)cc3)CC2)c2ccccc21 [Example 7.02.34.] here?
Answer: 1460 nM

Question: How did the EC50 [1] turn out when O=C(Cn1nc(-c2ccc(F)cc2)nc1-c1ccc(F)cc1)N1CCC(N2Cc3c(Cl)cccc3NC2=O)CC1 [Example 7.02.35.] was run?
Answer: 1420 nM

Question: Which EC50 [1] does the source give for COc1ccc2c(c1)CCN(C(=O)Cn1nc(-c3ccc(F)cc3)nc1-c1ccc(F)cc1)C2C (stereo not shown) [Example 7.02.36.] here?
Answer: 1090 nM

Question: How did the EC50 [1] turn out when O=C(Cn1nc(-c2ccc(F)cc2)nc1-c1ccc(F)cc1)N1CCc2ncnc(-c3ccccc3)c2CC1 [Example 7.02.37.] was run?
Answer: 708 nM

Question: Which EC50 [1] does the source give for Cc1noc(C2CCN(C(=O)Cn3nc(-c4ccc(F)cc4)nc3-c3ccc(F)cc3)CC2)n1 [Example 7.02.38.] here?
Answer: 1150 nM

Question: Which EC50 [1] does the source give for COc1ccc2c(c1)CCN(C(=O)Cn1nc(-c3ccc(F)cc3)nc1-c1ccc(F)cc1)CC2 [Example 7.02.39.] here?
Answer: 279 nM

Question: For O=C(Cn1nc(-c2ccc(F)cc2)nc1-c1ccc(F)cc1)N1Cc2ccncc2C1 [Example 7.02.40.], which EC50 [1] is on record?
Answer: 1760 nM

Question: How did the EC50 [1] turn out when COc1ccc2c(c1)CN(C(=O)Cn1nc(-c3ccc(F)cc3)nc1-c1ccc(F)cc1)CC2 [Example 7.02.41.] was run?
Answer: 1270 nM

Question: Which EC50 [1] does the source give for Nc1nc2c(s1)CN(C(=O)Cn1nc(-c3ccc(F)cc3)nc1-c1ccc(F)cc1)CC2 [Example 7.02.42.] here?
Answer: 1240 nM

Question: O=C(Cn1nc(-c2ccc(F)cc2)nc1-c1ccc(F)cc1)N1CCc2ncsc2C1 [Example 7.02.43.] was tested. Which EC50 [1] did it give?
Answer: 1640 nM

Question: COc1ccc2c(c1)CCN(C(=O)Cn1nc(-c3ccc(F)cc3)nc1-c1ccc(F)cc1)C2 [Example 7.02.44.] was tested. Which EC50 [1] did it give?
Answer: 211 nM

Question: For Nc1nnc(C2CCN(C(=O)Cn3nc(-c4ccc(F)cc4)nc3-c3ccc(F)cc3)CC2)o1 [Example 7.02.45.], which EC50 [1] is on record?
Answer: 1000 nM

Question: Which EC50 [1] does the source give for COc1cccc2c1CN(C(=O)Cn1nc(-c3ccc(F)cc3)nc1-c1ccc(F)cc1)C2 [Example 7.02.46.] here?
Answer: 381 nM

Question: How did the EC50 [1] turn out when COc1ccc2c(c1)CN(C(=O)Cn1nc(-c3ccc(F)cc3)nc1-c1ccc(F)cc1)C2 [Example 7.02.47.] was run?
Answer: 206 nM
